Measured values from patent publication US20100260684A1, “USE OF 3-ALKANOYLOXYMETHOXYCARBONYL NITROXIDE ESTERS AS OXIMETRY PROBES FOR MEASUREMENT OF OXYGEN STATUS IN TISSUES” (priority 2007, published 2010).
Read-outs that look alike come from different tables or passages of the source.

Experiments:
Jurkat lymphocytes = assay type: cell-based
Description: Cellular Loading of Nitroxides. Jurkat lymphocytes were cultured and loaded with nitroxides as previously described (5,6). […] After incubation, cells were washed 3 times in Hanks' Balanced Salt Solution (HBSS), and resuspended in […] HBSS. To lyse cells, […] digitonin was added to each cell suspension, which was then sonicated for […] in a bath sonicator (model G1 12SPIG, Laboratory Supplies Company, Inc., Hicksville, N.Y.). The lysate was assayed for nitroxide content by EPR spectroscopy. […] EPR Spectroscopy. EPR spectra were recorded on an X-band spectrometer (model E-109, Varian Inc., Palo Alto, Calif.) at the following settings: microwave power, 20 mW; microwave frequency, 9.55 GHz; field set, 3335 G; modulation frequency, 1 kHz; modulation amplitude, 0.5 G; field sweep, 80 G at 26.7 G min^-1 Where the amplitude of only the center spectral line was required, the sweep width was 8 […] software (Scientific Software Solutions, Northville, Mich.) was used for spectrometer control and data acquisition. Nitroxide signal was measured as the peak-to-trough amplitude of the center line of the three-line spectrum.

[1] = In vivo EPR: nitroxide entrapped in brain after iv injection and saline wash of head vasculature; settings: mice, vasculature washed with normal saline
[2] = Determination of logP of labile esters from HPLC capacity factors; settings: pH 6
[3] = pH 6
[4] = mouse, in vivo, iv
[5] = literature values used for logP vs. logk' calibration line; cited from earlier work

Molecule: 3-heptanoylmethoxycarbonyl-2,2,5,5-tetramethyl-1-pyrrolidinyloxyl [Ester 7]
- intracellular loading of nitroxide [1] (Jurkat lymphocytes): no additional improvement in loading

Molecule: CC(=O)OCOC(=O)C1CC(C)(C)N([O])C1(C)C (centres unmarked) [Ester 2, 3-Acetoxymethoxycarbonyl-2,2,5,5-tetramethyl-1-pyrrolidinyloxyl]
- percentage of original dose crossed the blood brain barrier and entrapped in the brain as nitroxide [1] ([1]; 10-min point): about 42%
- percentage of original dose crossed the blood brain barrier and entrapped in the brain as nitroxide [1] ([1]; 20-min point): about 42%

Molecule: CCC(=O)OCOC(=O)C1CC(C)(C)N([O])C1(C)C (centres unmarked) [Ester 3, 3-propanoylmethyloxycarbonyl-2,2,5,5-tetramethyl-1-pyrrolidinyloxyl]
- intracellular loading of nitroxide [1] (Jurkat lymphocytes): negligible effect on intracellular loading

Molecule: CCC(=O)OCOC(=O)C1CC(C)(C)N(O)C1(C)C (centres unmarked) [Ester 3]
- chromatographic logP [2]: 1.33

Molecule: CCCCC(=O)OCOC(=O)C1CC(C)(C)N([O])C1(C)C (centres unmarked) [Ester 4, 3-pentanoylmethoxycarbonyl-2,2,5,5-tetramethyl-1-pyrrolidinyloxyl]
- logP [3]: 2.67
- percentage of original dose crossed the blood brain barrier and entrapped in the brain as nitroxide [1] [4]: about 65%

Molecule: CCCCC(=O)OCOC(=O)C1CC(C)(C)N(O)C1(C)C (centres unmarked) [Ester 4]
- chromatographic logP [2]: 2.67

Molecule: CC(C)(C)C(=O)OCOC(=O)C1CC(C)(C)N([O])C1(C)C (centres unmarked) [Ester 6]
- logP [3]: 2.60

Molecule: CCCCCCC(=O)OCOC(=O)C1CC(C)(C)N(O)C1(C)C (centres unmarked) [Ester 7]
- chromatographic logP [2]: 3.54

Molecule: C[C@]12CCC(=O)C=C1CC[C@@H]1[C@@H]2[C@@H](O)C[C@@]2(C)[C@H]1CC[C@]2(O)C(=O)CO [hydrocortisone]
- known logP [5]: 1.53
